# Target: T1, Kv7.2/7.3 (Homo sapiens, UniProt O43525+O43526)
# T1 construct: host or cells: HEK cells, tetracycline-inducible expression
# Assay: Kv7.2/7.3 activation assay, QPatch planar patch-clamp, single concentration screen
# Assay type: cell-based
# Set-up: key: <1.2-fold increase over baseline (−); +/−: as a range from <1.2-fold increase over baseline (−) up to >6-fold increase over baseline (+++); as a range from <1.2-fold increase over baseline (−) up to >6-fold increase over baseline (+++); as a range from <1.2-fold increase over baseline (−) up to >6-fold increase over baseline (+++); >6-fold increase over baseline (+++)
# Settings: Kv7.2/Kv7.3 co-expressing HEK cells, compound 3 μM, steady-state current at end of 2 s pulse to −30 mV
# Procedure: The ability of compounds to potentiate K-currents in Kv7.2/7.3 containing HEK cells was assessed using planar patch-clamp on the QPatch automated screening platform.
# Cell Line: The hKv7.2/7.3 cell line was obtained from Chantest (Cleveland, OH 44128) cat. #CT6147. These HEK cells will express the Kv7.2/7.3 ion channels when induced.
# Cell Culture: Cells were maintained in a media containing DMEM/F12; 50/50 (GIBCO cat. #11330), 10% Fetal Bovine Serum (FBS) (GIBCO cat. #26140), 100 units/mL Penicillin-Streptomycin (GIBCO cat. #15140), 0.005 mg/mL Blasticidin (INVIVOGEN cat. #ant-bl-1), 0.5 mg/mL Geneticin (GIBCO cat. #10131), 0.1 mg/ml Zeocin (GIBCO cat. #R25001). Cells used in the electrophysiology assay were maintained in a media without Blasticidin, Geneticin and Zeocin for 2 days and channel expression was induced by adding tetracycline (BIOLINE cat. #BIO-87030) at a final concentration of 1 mg/mL. Cells were grown in T-175 flask to ˜75% confluency. Currents were recorded 24 hours after channel induction.
# Compound Plates: Test compounds were prepared by performing serial dilutions on a Biomek NX^P (BECKMAN COULTER). Final dilutions were made in external recording solution with a final DMSO concentration of 0.1% DMSO. For single concentration screens each plate had 10 μM retigabine as a positive control and 0.1% DMSO as a negative control.
# Electrophysiology: On the day of the experiment cells were washed with Hank's Balanced Salt Solution (HBBS) (GIBCO cat. #14175) and harvested with Tryple (GIBCO cat. #12604). Cells were then centrifuged at 2000 rpm for 5 minutes and resuspended in CHO-S-SFM (GIBCO cat. #12052) at ˜3×10^6 cells/mL. Cells were stirred for 30 minutes before experiments were started. External recording solution contained (in mM): NaCl (145), KCl (4), CaCl2 (2), MgCl2 (1), HEPES (10) and Glucose (10); pH was adjusted to 7.4 with NaOH and the osmolarity was adjusted to 300-305 mOsM with sucrose if necessary. Internal solution contained (in mM): KCl (125), KF (10), EGTA (5), Na2ATP (5), MgCl2 (3.2), HEPES (5); pH was adjusted to 7.2 with KOH and the osmolarity was adjusted to 298-302 mOsM with sucrose.
# Potassium channel activity was measured on the QPatch HTX (Sophion Bioscience) using QPlates with 48-wells/plate. Each cell was taken as an independent experiment and only one compound was tested per well. Potassium channel activity was elicited by holding at −80 mV and stepping to −30 mV for 2 s followed by a 100 ms pulse to −120 mV.
# Single concentration screen: Baseline conditions were obtained by recording 5 sweeps in the external solution only, this was repeated for three applications of the external solution. […] The steady-state current at the end of the 2 s pulse to −30 mV was measured to determine the fold increase from baseline.
row,Structure (SMILES),Kv7.2/7.3 Activity: increase in current over baseline
1,"CC(C)(O)Cc1ccc2nc(NC(=O)[C@H]3CC3(C)C)n(-c3ccc(F)cc3)c2c1F [Example 115, (S)-N-(7-fluoro-1-(4-fluorophenyl)-6-(2-hydroxy-2-methylpropyl)-1H-benzo[d]imidazol-2-yl)-2,2-dimethylcyclopropane-1-carboxamide]",+
2,"CCOC(=O)Cc1ccc2nc(NC(=O)[C@H]3CC3(C)C)n(C3CCC3)c2c1F [Example 111, ethyl (S)-2-(1-cyclobutyl-2-(2,2-dimethylcyclopropane-1-carboxamido)-7-fluoro-1H-benzo[d]imidazol-6-yl)acetate]",+
3,"CC(C)(O)c1ccc2nc(NC(=O)C3CC34CC4)n(-c3ccc(F)cc3)c2c1 (centres unmarked) [Example 109, N-(1-(4-fluorophenyl)-6-(2-hydroxypropan-2-yl)-1H-benzo[d]imidazol-2-yl)spiro[2.2]pentane-1-carboxamide]",+
4,"N#Cc1ccc2nc(NC(=O)C[C@H](O)c3ccccc3)n(C3CCC3)c2c1 [Example 26, (S)-N-(6-cyano-1-cyclobutyl-1H-benzo[d]imidazol-2-yl)-3-hydroxy-3-phenylpropanamide]",+/−
5,"CC(C)(C)CC(=O)Nc1nc2ccc(CC(C)(C)O)c(F)c2n1-c1ccc(F)cc1 [Example 116, N-(7-fluoro-1-(4-fluorophenyl)-6-(2-hydroxy-2-methylpropyl)-1H-benzo[d]imidazol-2-yl)-3,3-dimethylbutanamide]",+
6,"Cc1cc(-n2c(NC(=O)CC(C)(C)C)nc3ccc(C(F)(F)F)cc32)on1 [Example 46, 3,3-dimethyl-N-(1-(3-methylisoxazol-5-yl)-6-(trifluoromethyl)-1H-benzo[d]imidazol-2-yl)butanamide]",+
7,"CC1(n2c(NC(=O)C[C@](C)(O)c3ccc(Cl)cc3)nc3ccc(C#N)cc32)CCC1 [Example 140, (S)-3-(4-chlorophenyl)-N-(6-cyano-1-(1-methylcyclobutyl)-1H-benzo[d]imidazol-2-yl)-3-hydroxybutanamide]",+/−
8,"C[C@](O)(CC(=O)Nc1nc2ccc(Cl)cc2n1C1CCC1)c1ccc(F)cc1 [Example 103, (S)-N-(6-chloro-1-cyclobutyl-1H-benzo[d]imidazol-2-yl)-3-(4-fluorophenyl)-3-hydroxybutanamide]",+
9,"CC(C)(C)CC(=O)Nc1nc2ccc(Br)cc2n1C1CCC1 [Example 63, N-(6-bromo-1-cyclobutyl-1H-benzo[d]imidazol-2-yl)-3,3-dimethylbutanamide]",++
10,"CCOC(=O)Cc1ccc2nc(NC(=O)CC(C)(C)C)n(-c3ccc(F)cc3)c2c1F [Example 112, ethyl 2-(2-(3,3-dimethylbutanamido)-7-fluoro-1-(4-fluorophenyl)-1H-benzo[d]imidazol-6-yl)acetate]",++
11,"C[C@H](C(=O)Nc1nc2ccc(C#N)cc2n1C1CCC1)C1(O)CCC1 [Example 27, (S)-N-(6-cyano-1-cyclobutyl-1H-benzo[d]imidazol-2-yl)-2-(1-hydroxycyclobutyl)propanamide]",+/−
12,"O=C(CC(C(F)(F)F)C(F)(F)F)Nc1nc2ccc(C(F)(F)F)cc2n1C1CCC1 [Example 39, N-(1-cyclobutyl-6-(trifluoromethyl)-1H-benzo[d]imidazol-2-yl)-4,4,4-trifluoro-3-(trifluoromethyl)butanamide]",+
13,"CC(C)(O)Cc1ccc2nc(NC(=O)[C@H]3CC3(C)C)n(C3CCC3)c2c1F [Example 113, (S)-N-(1-cyclobutyl-7-fluoro-6-(2-hydroxy-2-methylpropyl)-1H-benzo[d]imidazol-2-yl)-2,2-dimethylcyclopropane-1-carboxamide]",+
14,"CC(C)(O)c1ccc2nc(NC(=O)C3CC4(CCC4)C3)n(C3CCC3)c2c1 [Example 87, N-(1-cyclobutyl-6-(2-hydroxypropan-2-yl)-1H-benzo[d]imidazol-2-yl)spiro[3.3]heptane-2-carboxamide]",++
15,"CC(C)[C@@H](C)C(=O)Nc1nc2ccc(C(F)(F)F)cc2n1C1CCC1 [Example 40, (R)-N-(1-cyclobutyl-6-(trifluoromethyl)-1H-benzo[d]imidazol-2-yl)-2,3-dimethylbutanamide]",+
16,"O=C(CC1(O)CCC1)Nc1nc2ccc(Cl)cc2n1C1CCC1 [Example 62, N-(6-chloro-1-cyclobutyl-1H-benzo[d]imidazol-2-yl)-2-(1-hydroxycyclobutyl)acetamide]",+
17,"CC1(C)C[C@@H]1C(=O)Nc1nc2ccc(C(F)(F)F)cc2n1C1CCC1 [Example 37, (S)-N-(1-cyclobutyl-6-(trifluoromethyl)-1H-benzo[d]imidazol-2-yl)-2,2-dimethylcyclopropane-1-carboxamide]",+
18,"CC(C)(O)c1ccc2nc(NC(=O)CC(O)(C(F)(F)F)C(F)(F)F)n(-c3ccc(F)cc3)c2c1 [Example 131, 4,4,4-trifluoro-N-(1-(4-fluorophenyl)-6-(2-hydroxypropan-2-yl)-1H-benzo[d]imidazol-2-yl)-3-hydroxy-3-(trifluoromethyl)butanamide]",+/−
19,"CC(C)(O)[C@H]1C[C@@H]1C(=O)Nc1nc2ccc(C#N)cc2n1C1CCC1 [Example 15, (1S,2S)-N-(6-cyano-1-cyclobutyl-1H-benzo[d]imidazol-2-yl)-2-(2-hydroxypropan-2-yl)cyclopropane-1-carboxamide]",+/−
20,"CC(C)[C@@H](C)C(=O)Nc1nc2ccc(C#N)cc2n1C1CCC1 [Example 14, (R)-N-(6-cyano-1-cyclobutyl-1H-benzo[d]imidazol-2-yl)-2,3-dimethylbutanamide]",+/−
21,"Cc1cc2nc(NC(=O)C[C@@](C)(O)c3ccccc3)n(C(C)(C)C)c2cc1C#N [Example 120, (R)-N-(1-(tert-butyl)-6-cyano-5-methyl-1H-benzo[d]imidazol-2-yl)-3-hydroxy-3-phenylbutanamide]",+
22,"CC(C)(O)CC(=O)Nc1nc2ccc(C(F)(F)F)cc2n1C1CCC1 [Example 35, N-(1-cyclobutyl-6-(trifluoromethyl)-1H-benzo[d]imidazol-2-yl)-3-hydroxy-3-methylbutanamide]",+
23,"O=C(CC(O)(C1CC1)C1CC1)Nc1nc2ccc(C(F)(F)F)cc2n1C1CCC1 [Example 98, N-(1-cyclobutyl-6-(trifluoromethyl)-1H-benzo[d]imidazol-2-yl)-3,3-dicyclopropyl-3-hydroxypropanamide]",+
24,"CC1(n2c(NC(=O)C[C@](C)(O)c3ccccc3)nc3ccc(C#N)cc32)CCC1 [Example 95, (S)-N-(6-cyano-1-(1-methylcyclobutyl)-1H-benzo[d]imidazol-2-yl)-3-hydroxy-3-phenylbutanamide]",++
25,"C[C@](O)(CC(=O)Nc1nc2ccc(Cl)cc2n1C1CCC1)c1ccccc1 [Example 99, (S)-N-(6-chloro-1-cyclobutyl-1H-benzo[d]imidazol-2-yl)-3-hydroxy-3-phenylbutanamide]",+
26,"COC(=O)c1cccc2nc(NC(=O)CC(C)(C)C)n(C3CCC3)c12 [Example 67, methyl 1-cyclobutyl-2-(3,3-dimethylbutanamido)-1H-benzo[d]imidazole-7-carboxylate]",+/−

# Source: patent US12351559B2 (Biohaven Therapeutics Ltd., priority 2014, dated 2025)
